Reference: patent US8846947B2, “Benzimidazoles and related analogs as sirtuin modulators” (GlaxoSmithKline LLC, priority 2008, dated 2014)
Read-outs that look alike come from different tables or passages of the source.

Molecular target: T1, SIRT1 (Homo sapiens, UniProt Q96EB6)
T1 sequence (Q96EB6 1-747): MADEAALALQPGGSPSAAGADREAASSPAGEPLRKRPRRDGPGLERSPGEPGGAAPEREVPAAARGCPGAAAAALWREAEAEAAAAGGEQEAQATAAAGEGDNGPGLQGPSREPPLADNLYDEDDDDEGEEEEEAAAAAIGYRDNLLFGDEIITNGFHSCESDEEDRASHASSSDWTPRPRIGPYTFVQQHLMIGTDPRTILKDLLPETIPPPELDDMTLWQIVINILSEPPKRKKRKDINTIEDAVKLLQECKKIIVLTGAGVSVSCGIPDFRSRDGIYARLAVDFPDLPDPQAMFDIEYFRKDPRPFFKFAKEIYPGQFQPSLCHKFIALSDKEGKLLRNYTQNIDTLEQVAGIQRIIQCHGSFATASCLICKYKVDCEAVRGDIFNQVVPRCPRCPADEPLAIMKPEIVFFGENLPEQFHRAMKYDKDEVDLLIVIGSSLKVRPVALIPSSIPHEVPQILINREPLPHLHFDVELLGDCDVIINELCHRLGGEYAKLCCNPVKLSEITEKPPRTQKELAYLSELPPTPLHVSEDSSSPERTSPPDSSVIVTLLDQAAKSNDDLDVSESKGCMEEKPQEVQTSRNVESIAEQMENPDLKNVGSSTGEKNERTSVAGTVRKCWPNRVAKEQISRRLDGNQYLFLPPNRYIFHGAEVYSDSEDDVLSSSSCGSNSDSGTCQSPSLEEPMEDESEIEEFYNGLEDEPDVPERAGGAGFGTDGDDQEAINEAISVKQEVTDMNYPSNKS
Assay: Mass spectrometry based SIRT1 deacetylase activation assay (acetylated p53-derived peptide substrate)
Assay type: biochemical
Conditions: 0.5 μM peptide substrate, 120 μM βNAD+

[1] = 10 nM SIRT1, 25 min at 25° C., read-out: EC1.5
[2] = 10 nM SIRT1, 25 minutes at 25° C.

O=C(Nc1nccs1)c1cccc2[nH]c(-c3ccc(OC[C@@H](O)CO)cc3C(F)F)nc12 [Compound 594] was tested, and the “Fold Act. (percent maximum fold activation)” value (10 nM SIRT1, 25 min at 25° C.) was “A (Fold activation >200%)” and the EC1.5 [1] was < 1000 nM.

For Cc1cnc(NC(=O)c2cccc3[nH]c(-c4ccc(OC[C@@H](O)CO)cc4C(F)F)nc23)s1 [Compound 595], the “Fold Act. (percent maximum fold activation)” value (10 nM SIRT1, 25 min at 25° C.) was “A (Fold activation >200%)” and the EC1.5 [1] was < 1000 nM.

O=C(Nc1ccccn1)c1cccc2[nH]c(-c3ccc(OC[C@@H](O)CO)cc3C(F)F)nc12 [Compound 596] was tested, and the “Fold Act. (percent maximum fold activation)” value (10 nM SIRT1, 25 min at 25° C.) was “A (Fold activation >200%)” and the EC1.5 [1] was < 1000 nM.

With O=C(Nc1cccc(OC2CCNCC2)c1)c1cccc2[nH]c(-c3ccccc3C(F)(F)F)nc12 [Compound 597] the “Fold Act. (percent maximum fold activation)” value (10 nM SIRT1, 25 min at 25° C.) was “A (Fold activation >200%)” and the EC1.5 [1] was < 1000 nM.

For O=C(Nc1cccc(OC2CCNCC2)c1)c1cccc2[nH]c(-c3ccc(Cl)cc3C(F)(F)F)nc12 [Compound 598], the EC1.5 [2] was “A (EC1.5<1.0 uM)” and the “Fold Act. (percent maximum fold activation)” value [2] was “A (Fold activation >200%)”.

With O=C(Nc1cccc(OC2CCNC2)c1)c1cccc2[nH]c(-c3ccc(Cl)cc3C(F)(F)F)nc12 (stereo not shown) [Compound 599] the EC1.5 [2] was “A (EC1.5<1.0 uM)” and the “Fold Act. (percent maximum fold activation)” value [2] was “A (Fold activation >200%)”.

CS(=O)(=O)c1ccc(F)cc1-c1nc2c(C(=O)Nc3nccs3)cccc2[nH]1 [Compound 600] was tested, and the EC1.5 [2] was “B (EC1.5 1-25 uM)” and the “Fold Act. (percent maximum fold activation)” value [2] was “A (Fold activation >200%)”.

For Cc1cnc(NC(=O)c2cccc3[nH]c(-c4sc(N5CCOCC5)nc4C)nc23)s1 [Compound 601], the EC1.5 [2] was “A (EC1.5<1.0 uM)” and the “Fold Act. (percent maximum fold activation)” value [2] was “A (Fold activation >200%)”.

CCCN1CCCc2ccc(-c3nc4c(C(=O)Nc5ncc(C)s5)cccc4[nH]3)cc21 [Compound 602] was tested, and the EC1.5 [2] was “B (EC1.5 1-25 uM)” and the “Fold Act. (percent maximum fold activation)” value [2] was “A (Fold activation >200%)”.

In the case of C[C@@H]1CN(c2ccc(-c3nc4c(C(=O)Nc5nccs5)cccc4[nH]3)c(C(F)(F)F)c2)C[C@H](C)O1 [Compound 603], the EC1.5 [2] is reported as “A (EC1.5<1.0 uM)” and the “Fold Act. (percent maximum fold activation)” value [2] is reported as “A (Fold activation >200%)”.

In the case of C[C@@H]1CN(c2ccc(-c3nc4c(C(=O)Nc5cccnc5)cccc4[nH]3)c(C(F)(F)F)c2)C[C@H](C)O1 [Compound 604], the EC1.5 [2] is reported as “A (EC1.5<1.0 uM)” and the “Fold Act. (percent maximum fold activation)” value [2] is reported as “A (Fold activation >200%)”.

For O=C(Nc1ccccn1)c1cccc2[nH]c(-c3ccc(N4CCCC4)cc3C(F)(F)F)nc12 [Compound 605], the EC1.5 [2] was “B (EC1.5 1-25 uM)” and the “Fold Act. (percent maximum fold activation)” value [2] was “A (Fold activation >200%)”.

With O=C(Nc1nccs1)c1cccc2[nH]c(-c3ccc(N4CC[C@H](F)C4)cc3C(F)(F)F)nc12 [Compound 606] the EC1.5 [2] was “A (EC1.5<1.0 uM)” and the “Fold Act. (percent maximum fold activation)” value [2] was “A (Fold activation >200%)”.

In the case of O=C(Nc1ccccn1)c1cccc2[nH]c(-c3ccc(N4CC[C@H](F)C4)cc3C(F)(F)F)nc12 [Compound 607], the EC1.5 [2] is reported as “A (EC1.5<1.0 uM)” and the “Fold Act. (percent maximum fold activation)” value [2] is reported as “A (Fold activation >200%)”.

With O=C(Nc1nccs1)c1cccc2[nH]c(-c3ccc(N4CC[C@@H](F)C4)cc3C(F)(F)F)nc12 [Compound 608] the EC1.5 [2] was “A (EC1.5<1.0 uM)” and the “Fold Act. (percent maximum fold activation)” value [2] was “A (Fold activation >200%)”.

For O=C(Nc1ccccn1)c1cccc2[nH]c(-c3ccc(N4CC[C@@H](F)C4)cc3C(F)(F)F)nc12 [Compound 609], the EC1.5 [2] was “B (EC1.5 1-25 uM)” and the “Fold Act. (percent maximum fold activation)” value [2] was “A (Fold activation >200%)”.

With C[C@@H]1CN(CCOc2ccccc2-c2nc3c(C(=O)Nc4ccccn4)cccc3[nH]2)C[C@H](C)O1 [Compound 610] the EC1.5 [2] was “B (EC1.5 1-25 uM)” and the “Fold Act. (percent maximum fold activation)” value [2] was “A (Fold activation >200%)”.

In the case of O=C(Nc1nccs1)c1cccc2[nH]c(-c3ccccc3OCCN3CCCC(F)(F)C3)nc12 [Compound 611], the EC1.5 [2] is reported as “C (EC1.5 >25 uM)” and the “Fold Act. (percent maximum fold activation)” value [2] is reported as “B (Fold Activation <200%)”.

In the case of O=C(Nc1ccccn1)c1cccc2[nH]c(-c3ccccc3OCCN3CCCC(F)(F)C3)nc12 [Compound 612], the EC1.5 [2] is reported as “C (EC1.5 >25 uM)” and the “Fold Act. (percent maximum fold activation)” value [2] is reported as “B (Fold Activation <200%)”.

O=C(Nc1ccccn1)c1cccc2[nH]c(-c3ccccc3OCCN3CCC(F)(F)CC3)nc12 [Compound 613] was tested, and the EC1.5 [2] was “B (EC1.5 1-25 uM)” and the “Fold Act. (percent maximum fold activation)” value [2] was “B (Fold Activation <200%)”.

O=C(Nc1nccs1)c1cccc2[nH]c(-c3ccccc3OCCN3CCC(F)(F)C3)nc12 [Compound 614] was tested, and the EC1.5 [2] was “C (EC1.5 >25 uM)” and the “Fold Act. (percent maximum fold activation)” value [2] was “B (Fold Activation <200%)”.

For O=C(Nc1ccccn1)c1cccc2[nH]c(-c3ccccc3OCCN3CCC(F)(F)C3)nc12 [Compound 615], the EC1.5 [2] was “C (EC1.5 >25 uM)” and the “Fold Act. (percent maximum fold activation)” value [2] was “B (Fold Activation <200%)”.

In the case of CC(C)(C)NCCOc1ccccc1-c1nc2c(C(=O)Nc3ccccn3)cccc2[nH]1 [Compound 616], the EC1.5 [2] is reported as “B (EC1.5 1-25 uM)” and the “Fold Act. (percent maximum fold activation)” value [2] is reported as “A (Fold activation >200%)”.

For FC(F)(F)c1cccc(-c2nc3c(NCc4cccnc4)cccc3[nH]2)c1 [Compound 617], the EC1.5 [2] was “B (EC1.5 1-25 uM)” and the “Fold Act. (percent maximum fold activation)” value [2] was “B (Fold Activation <200%)”.

With FC(F)(F)c1ccccc1-c1nc2c(NCc3cccnc3)cccc2[nH]1 [Compound 618] the EC1.5 [2] was “C (EC1.5 >25 uM)” and the “Fold Act. (percent maximum fold activation)” value [2] was “B (Fold Activation <200%)”.

For c1cncc(CNc2cccc3[nH]c(-c4cccc(N5CCOCC5)c4)nc23)c1 [Compound 619], the EC1.5 [2] was “B (EC1.5 1-25 uM)” and the “Fold Act. (percent maximum fold activation)” value [2] was “B (Fold Activation <200%)”.

O=C(Nc1cccc(CN2CCCC2)n1)c1cccc2[nH]c(-c3ccccc3C(F)(F)F)nc12 [Compound 620, N-(6-(pyrrolidin-1-ylmethyl)pyridin-2-yl)-2-(2-(trifluoromethyl)phenyl)-1H-benzo[d]imidazole-4-carboxamide] was tested, and the EC1.5 [2] was “A (EC1.5<1.0 uM)” and the “Fold Act. (percent maximum fold activation)” value [2] was “A (Fold activation >200%)”.

In the case of O=C(Nc1ccc(CN2CCNCC2)cn1)c1cccc2[nH]c(-c3ccccc3C(F)(F)F)nc12 [Compound 621, N-(5-(piperazin-1-ylmethyl)pyridin-2-yl)-2-(2-(trifluoromethyl)phenyl)-1H-benzo[d]imidazole-4-carboxamide], the EC1.5 [2] is reported as “A (EC1.5<1.0 uM)” and the “Fold Act. (percent maximum fold activation)” value [2] is reported as “A (Fold activation >200%)”.

For O=C(Nc1cccc(CN2CCCC2)n1)c1cccc2[nH]c(-c3ccc(Cl)cc3C(F)(F)F)nc12 [Compound 622], the EC1.5 [2] was “A (EC1.5<1.0 uM)” and the “Fold Act. (percent maximum fold activation)” value [2] was “A (Fold activation >200%)”.

O=C(Nc1cccc(CN2CCCC2)n1)c1cccc2[nH]c(-c3cc(F)ccc3C(F)(F)F)nc12 [Compound 623] was tested, and the EC1.5 [2] was “A (EC1.5<1.0 uM)” and the “Fold Act. (percent maximum fold activation)” value [2] was “A (Fold activation >200%)”.

With O=C(Nc1ccc(CN2CCOCC2)cn1)c1cccc2[nH]c(-c3cc(F)ccc3C(F)(F)F)nc12 [Compound 624, 2-(5-fluoro-2-(trifluoromethyl)phenyl)-N-(5-(morpholinomethyl)pyridin-2-yl)-1H-benzo[d]imidazole-4-carboxamide] the EC1.5 [2] was “B (EC1.5 1-25 uM)” and the “Fold Act. (percent maximum fold activation)” value [2] was “A (Fold activation >200%)”.

For O=C(Nc1ccc(CN2CCCC2)cn1)c1cccc2[nH]c(-c3cc(F)ccc3C(F)(F)F)nc12 [Compound 625], the EC1.5 [2] was “A (EC1.5<1.0 uM)” and the “Fold Act. (percent maximum fold activation)” value [2] was “A (Fold activation >200%)”.

Cc1cccc(-c2nc3c(C(=O)Nc4nccs4)cccc3[nH]2)c1OCCN1CCOCC1 [Compound 626] was tested, and the EC1.5 [2] was “B (EC1.5 1-25 uM)” and the “Fold Act. (percent maximum fold activation)” value [2] was “A (Fold activation >200%)”.

In the case of Cc1cccc(-c2nc3c(C(=O)Nc4ccccn4)cccc3[nH]2)c1OCCN1CCOCC1 [Compound 627], the EC1.5 [2] is reported as “B (EC1.5 1-25 uM)” and the “Fold Act. (percent maximum fold activation)” value [2] is reported as “A (Fold activation >200%)”.

O=C(Nc1nccs1)c1cc(N2CCOCC2)cc2[nH]c(-c3ccccc3C(F)(F)F)nc12 [Compound 628, 6-morpholino-N-(thiazol-2-yl)-2-(2-(trifluoromethyl)phenyl)-1H-benzo[d]imidazole-4-carboxamide] was tested, and the EC1.5 [2] was “A (EC1.5<1.0 uM)” and the “Fold Act. (percent maximum fold activation)” value [2] was “A (Fold activation >200%)”.

In the case of O=C(Nc1ccccn1)c1cc(N2CCOCC2)cc2[nH]c(-c3ccccc3C(F)(F)F)nc12 [Compound 629], the EC1.5 [2] is reported as “A (EC1.5<1.0 uM)” and the “Fold Act. (percent maximum fold activation)” value [2] is reported as “A (Fold activation >200%)”.

In the case of O=C(Nc1cccnc1)c1cc(N2CCOCC2)cc2[nH]c(-c3ccccc3C(F)(F)F)nc12 [Compound 630], the EC1.5 [2] is reported as “A (EC1.5<1.0 uM)” and the “Fold Act. (percent maximum fold activation)” value [2] is reported as “A (Fold activation >200%)”.

For O=C(Nc1cccnn1)c1cc(N2CCOCC2)cc2[nH]c(-c3ccccc3C(F)(F)F)nc12 [Compound 631], the EC1.5 [2] was “A (EC1.5<1.0 uM)” and the “Fold Act. (percent maximum fold activation)” value [2] was “A (Fold activation >200%)”.
